Experiments:
Assay in all cases: Pemetrexed cytotoxicity test upon suppression of expression of MYT1
Format in all cases: cell-based
NCI-H596 = NCI-H596 (RB1 mutant)
Procedure: (§1) Thereafter, the plates were shaken to transfect each siRNA at a final concentration of 10 nM.
(§2) The −Log 2 value of fold change of IC50 and the maximum value of Bliss score, which are indexes of the combination effect, were calculated by comparing with the actually obtained cell survival curve, and described in Table 6 (see Non Patent Literature 9).

HOP-62 = HOP-62 (RB1 wild-type)
Procedure: as §1, §2

NCI-H441 = NCI-H441 (RB1 wild-type)
Procedure: as §1, §2

NCI-H2110 = NCI-H2110 (RB1 mutant)
Procedure: as §1, §2

NCI-H358 = NCI-H358 (RB1 wild-type)
Procedure: as §1, §2

NCI-H1993 = NCI-H1993 (RB1 wild-type)
Procedure: as §1, §2

LU65 = LU65 (RB1 mutant)
Procedure: as §1, §2

A549 = A549 (RB1 wild-type)
Procedure: as §1, §2

EKVX = EKVX (RB1 wild-type)
Procedure: as §1, §2

NCI-H1666 = NCI-H1666 (RB1 wild-type)
Procedure: as §1, §2

NCI-H460 = NCI-H460 (RB1 wild-type)
Procedure: as §1, §2

ChaGo-K-1 = ChaGo-K-1 (RB1 mutant)
Procedure: as §1, §2

NCI-H292 = NCI-H292 (RB1 wild-type)
Procedure: as §1, §2

NCI-H1155 = NCI-H1155 (RB1 mutant)
Procedure: as §1, §2

ABC-1 = ABC-1 (RB1 wild-type)
Procedure: as §1, §2

NCI-H322 = NCI-H322 (RB1 wild-type)
Procedure: as §1, §2

NCI-H661 = NCI-H661 (RB1 wild-type)
Procedure: as §1, §2

NCI-H2122 = NCI-H2122 (RB1 wild-type)
Procedure: as §1, §2

PC-9 = PC-9 (RB1 wild-type)
Procedure: as §1, §2

[1] = pemetrexed + MYT1 siRNA #18 10 nM

## MYT1 #18: ON-TARGETplus individual siRNA, Dharmacon product code J-005026-18, nucleotide sequence SEQ ID No: 5 (CUUCCGAGCUGCGUUCUGU; chemistry not fully specified)
NCI-H596; 10 nM, no pemetrexed
  Cytotoxic activity of siRNA alone, MYT1 #18: −2.058%
NCI-H596; [1]
  Bliss score maximum value, MYT1 #18: 44.329
  HSA score maximum value, MYT1 #18: 42.707
HOP-62; 10 nM, no pemetrexed
  Cytotoxic activity of siRNA alone, MYT1 #18: 10.654%
HOP-62; [1]
  Bliss score maximum value, MYT1 #18: 20.375
  HSA score maximum value, MYT1 #18: 25.849
NCI-H441; 10 nM, no pemetrexed
  Cytotoxic activity of siRNA alone, MYT1 #18: 22.238%
NCI-H441; [1]
  Bliss score maximum value, MYT1 #18: 0.784
  HSA score maximum value, MYT1 #18: 17.896
NCI-H2110; 10 nM, no pemetrexed
  Cytotoxic activity of siRNA alone, MYT1 #18: 9.660%
NCI-H2110; [1]
  Bliss score maximum value, MYT1 #18: 23.200
  HSA score maximum value, MYT1 #18: 28.531
NCI-H358; 10 nM, no pemetrexed
  Cytotoxic activity of siRNA alone, MYT1 #18: 2.693%
NCI-H358; [1]
  Bliss score maximum value, MYT1 #18: 13.168
  HSA score maximum value, MYT1 #18: 14.592
NCI-H1993; 10 nM, no pemetrexed
  Cytotoxic activity of siRNA alone, MYT1 #18: 10.347%
NCI-H1993; [1]
  Bliss score maximum value, MYT1 #18: 7.046
  HSA score maximum value, MYT1 #18: 14.207
LU65; 10 nM, no pemetrexed
  Cytotoxic activity of siRNA alone, MYT1 #18: −0.297%
LU65; [1]
  Bliss score maximum value, MYT1 #18: 34.154
  HSA score maximum value, MYT1 #18: 33.984
A549; 10 nM, no pemetrexed
  Cytotoxic activity of siRNA alone, MYT1 #18: 0.844%
A549; [1]
  Bliss score maximum value, MYT1 #18: 9.581
  HSA score maximum value, MYT1 #18: 10.174
EKVX; 10 nM, no pemetrexed
  Cytotoxic activity of siRNA alone, MYT1 #18: 1.053%
EKVX; [1]
  Bliss score maximum value, MYT1 #18: 6.653
  HSA score maximum value, MYT1 #18: 7.060
NCI-H1666; 10 nM, no pemetrexed
  Cytotoxic activity of siRNA alone, MYT1 #18: 1.456%
NCI-H1666; [1]
  Bliss score maximum value, MYT1 #18: 13.160
  HSA score maximum value, MYT1 #18: 13.970
NCI-H460; 10 nM, no pemetrexed
  Cytotoxic activity of siRNA alone, MYT1 #18: −2.387%
NCI-H460; [1]
  HSA score maximum value, MYT1 #18: 9.099
ChaGo-K-1; 10 nM, no pemetrexed
  Cytotoxic activity of siRNA alone, MYT1 #18: −2.748%
ChaGo-K-1; [1]
  Bliss score maximum value, MYT1 #18: 34.464
  HSA score maximum value, MYT1 #18: 32.605
NCI-H292; 10 nM, no pemetrexed
  Cytotoxic activity of siRNA alone, MYT1 #18: 11.155%
NCI-H292; [1]
  Bliss score maximum value, MYT1 #18: 6.895
  HSA score maximum value, MYT1 #18: 11.985
NCI-H1155; 10 nM, no pemetrexed
  Cytotoxic activity of siRNA alone, MYT1 #18: 30.960%
NCI-H1155; [1]
  Bliss score maximum value, MYT1 #18: 23.341
  HSA score maximum value, MYT1 #18: 32.708
ABC-1; 10 nM, no pemetrexed
  Cytotoxic activity of siRNA alone, MYT1 #18: 7.811%
ABC-1; [1]
  Bliss score maximum value, MYT1 #18: 22.139
NCI-H322; 10 nM, no pemetrexed
  Cytotoxic activity of siRNA alone, MYT1 #18: −6.271%
NCI-H322; [1]
  Bliss score maximum value, MYT1 #18: 23.827
  HSA score maximum value, MYT1 #18: 19.509
NCI-H661; 10 nM, no pemetrexed
  Cytotoxic activity of siRNA alone, MYT1 #18: 9.766%
NCI-H661; [1]
  Bliss score maximum value, MYT1 #18: 11.699
  HSA score maximum value, MYT1 #18: 16.633
NCI-H2122; 10 nM, no pemetrexed
  Cytotoxic activity of siRNA alone, MYT1 #18: 5.899%
NCI-H2122; [1]
  Bliss score maximum value, MYT1 #18: 13.938
PC-9; 10 nM, no pemetrexed
  Cytotoxic activity of siRNA alone, MYT1 #18: −9.517%
PC-9; [1]
  Bliss score maximum value, MYT1 #18: 18.833
  HSA score maximum value, MYT1 #18: 14.476
